Molecules are shown by their SMILES.

The source of these data is the METLIN SMRT retention time set (Domingo-Almenara et al. 2019).

The nature of this data set: gradient 5% acetonitrile 3 min, to 50% in 2 min, to 85% in 15 min, held 3 min, 100 µL/min. The settings on record: column: Zorbax Extend-C18 2.1 x 50 mm; eluents: water / acetonitrile, 0.1% formic acid. The essentials:
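The mobile phases were water and acetonitrile, each with 0.1% formic acid, pumped at 100 μL/min through a Zorbax Extend-C18 column (2.1 × 50 mm, 1.8 μm). Pure standards were injected as mixtures of ~100 molecules and detected by a quadrupole time-of-flight mass spectrometer in positive and negative ionization mode. Retention time came from computationally picked adduct peaks, each inspected by hand.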
In turn, `CCc1nc(N2CCCC2=O)sc1C(=O)Nc1ccc(OC)c(Cl)c1` returned an RP-LC retention time of 905 s.

Take `Cc1nc2ccccc2c(=O)n1Cc1noc(-c2ccccc2Br)n1`: the RP-LC retention time turned out to be 871 s.

Regarding `O=C(NCc1cccnc1)C1c2ccccc2C(=O)N1Cc1ccccc1` (stereo not given), the RP-LC retention time was found to be 604 s.

Turning to `CC1=C(c2ccc(C)c(C)c2)S(=O)(=O)N=C1N1CCC(C(=O)NCCN2CCOCC2)CC1`, the RP-LC retention time is 648 s.

Compound `Clc1ccc(-c2nc3ccccn3c2Nc2ccc3c(c2)OCCO3)cc1` came in with an RP-LC retention time of 708 s. As to `Cc1ccc(C(=O)NCCc2nc3cccnc3n2C(C)C)cc1C`, the RP-LC retention time stood at 695 s. For the compound `CC(C)CC(=O)Nc1ccc(-n2cnc(C(=O)N3CCN(c4ccccc4)CC3)c2)nc1`, the RP-LC retention time was 819 s. As for `CN1c2ccc(F)cc2C(=O)NC12CCN(C(=O)c1ccc(F)c(Cl)c1)CC2`, the RP-LC retention time amounted to 823 s. `COc1cc(-c2nc3ccc(Cl)cn3c2Nc2ccc3c(c2)OCO3)ccc1O`: the RP-LC retention time was 679 s.

`CN(C(=O)C1CCCN(c2ncnc3c2nc2n3CCCCC2)C1)c1cccc(Cl)c1` (stereo not given) yielded an RP-LC retention time of 851 s. The value for `O=C(CN1C(=O)CN(C(=O)Nc2ccccc2)c2ccccc21)N1CCCc2ccccc21` was 940 s.

The compound `Cc1ccc(CNC(=O)C2(C)CN(S(C)(=O)=O)CC(=O)N2c2ccc(C)cc2C)cc1` (stereo not given) returned an RP-LC retention time of 864 s. The value for `CCN1CCCc2cc(C(=O)NCc3cccc(OC)c3)sc21` was 962 s; that for `COc1cccc(-c2cc(C(N)=O)c3ccccc3n2)c1` was 760 s. `Cc1ccc(CS(=O)(=O)N2CCC(C3CCNC3)CC2)cc1` (stereo not given) showed an RP-LC retention time of 588 s.

`COc1ccc(Cl)cc1NC(=O)c1c(N)c(C(=O)c2cccs2)n2ccccc12` yielded an RP-LC retention time of 1140 s.

As to `O=C(Cn1cnc2c(nnn2Cc2ccc(F)cc2)c1=O)N1CCCc2ccccc21`, the RP-LC retention time came to 822 s. With `Cn1nc(C(=O)N2C[C@@H]3C[C@H](NC(=O)c4ccccc4)[C@H]2C3)c2ccccc21`, the RP-LC retention time worked out at 788 s. `CCn1c(=O)c(N2CCC(NC(=O)NCCCOC)CC2)nc2ccccc21` had an RP-LC retention time of 707 s. As for `CSc1nc2nc3c(cn2n1)C(=O)CC(C)C3` (stereo not given), the RP-LC retention time was determined as 705 s. `Cc1ccc(NC(=O)N2CCC(n3cnc4cccnc43)CC2)c(Cl)c1` had an RP-LC retention time of 676 s.

`O=S(=O)(c1cccc(-c2nc(-c3ccccc3)no2)c1)N1CCCC1` yielded an RP-LC retention time of 1130 s. To `COC(=O)COc1cc(-c2ccc(F)cc2)nc2ccc(NC(=O)Cc3ccccc3)cc12` belongs 809 s. As for `CCOc1ccc(CN2CCc3nc(N4CCN(c5ccccc5F)CC4)ncc3C2)cc1`, the RP-LC retention time is 834 s. Compound `Cn1c(=O)oc2cc(-c3noc(CCc4ccccc4)n3)ccc21` gave an RP-LC retention time of 1030 s. In the case of `O=C(CN1CCN(c2ccc(Cl)cc2)C1=O)N1CCN(C(=O)c2ccco2)CC1`, the RP-LC retention time was 695 s. In the case of `CC(C)CNC(=O)CCC(=O)N1c2ccccc2NC2=C(C(=O)CC(C)(C)C2)C1c1ccco1` (stereo not given), the RP-LC retention time stood at 743 s. Take `Cc1c(C(=O)NC2CC2)c(C)n(C)c1-c1ccccc1`: the RP-LC retention time worked out at 830 s. `CCOc1ccc(-c2noc(C3CC(=O)N(c4cc(Cl)ccc4OC)C3)n2)cc1` (stereo not given): the RP-LC retention time came to 1040 s. Regarding `COc1ccc(S(=O)(=O)N2CCCC(C(=O)NCCCO)C2)cc1OC` (stereo not given), the RP-LC retention time came to 880 s.

Compound `Nc1ccc(Oc2ccc(N)c([N+](=O)[O-])c2)cc1[N+](=O)[O-]` came in with an RP-LC retention time of 899 s. `CC(C)c1ccc(NC(=O)c2cn3c(n2)CCCC3)cc1`: the RP-LC retention time came to 684 s. The compound `COc1ccccc1N1CCN(c2ncc(C(=O)O)c(C)n2)CC1` gave an RP-LC retention time of 750 s. `Cc1[nH]c(C)c(S(=O)(=O)N2CCC(C(=O)Nc3cc(F)ccc3F)CC2)c1C(=O)N1CCCC1` had an RP-LC retention time of 644 s.

The compound `CCOc1ccc(-c2noc(Cn3c(=O)n(-c4ccccc4)c(=O)c4sccc43)n2)cc1OC` showed an RP-LC retention time of 910 s. To `O=C(NCCCN1CCOCC1)C1=C2CCCN2c2ccc(F)cc2S1(=O)=O` belongs 576 s. As to `CCCCCNC(=O)c1cn(-c2ccc(NC(C)=O)cn2)cn1`, the RP-LC retention time is 690 s. The value for `CCn1ccc2sc(C)c(C(=O)NC3CCCCCC3)c2c1=O` was 894 s.

As for `Cc1ccc(-c2noc(C3CCCN3C(=O)NC3CCCCC3)n2)cc1` (stereo not given), the RP-LC retention time was 1020 s. As to `O=C(CSc1cn(CC(=O)N2CCCCCC2)c2ccccc12)NCC1CCCO1` (stereo not given), the RP-LC retention time turned out to be 799 s. As for `CCCN(CCC)S(=O)(=O)c1ccc(C)cc1`, the RP-LC retention time is 1200 s. In turn, `O=C(NC1CCCCC1)c1c2c(nc3ccccc13)CCC2` showed an RP-LC retention time of 690 s.

`O=C(Cn1c(=O)c(=O)n(Cc2ccncc2)c2ncccc21)NCCc1ccc(Cl)cc1`: the RP-LC retention time came out at 633 s. In turn, `O=C(NC1CCCC1)c1ccc2c(c1)nc1n2CCCCC1` came in with an RP-LC retention time of 600 s.

Regarding `CC(C)N1CCn2c(nc3cc(C(=O)NCc4ccc(Br)cc4)ccc32)C1=O`, the RP-LC retention time was 761 s. On to `Cc1cccc(NC(=O)Nc2ccc(-c3cccc4[nH]nc(N)c34)cc2)c1`, for which the RP-LC retention time stood at 789 s. In the case of `CCOc1ccccc1NS(=O)(=O)c1cc(-c2c(CC)noc2NC(C)=O)ccc1C`, the RP-LC retention time is 846 s. For the compound `COc1cc(CNC(=O)COc2ccc(NC(=O)C3CC3)cn2)cc(OC)c1`, the RP-LC retention time came to 713 s. `O=C(Nc1ccc2ccccc2c1)c1cccc(F)c1`: the RP-LC retention time was 1060 s.

In turn, `COc1ccc(C)cc1NS(=O)(=O)c1cc2c(s1)CCN(C(=O)C1CC1)C2` gave an RP-LC retention time of 839 s. `COCCN1C(=O)c2ccccc2C(C(=O)Nc2ccc3c(c2)OCO3)C12CCCC2` (stereo not given): the RP-LC retention time was found to be 816 s. `COc1ccc(OCc2noc(CNS(=O)(=O)c3ccc4c(c3)CCCC4)n2)cc1` showed an RP-LC retention time of 968 s. To `CCCc1ccc(S(=O)(=O)N2CCC3(CC2)CCC(O)(CN2CCCC2)CC3)cc1` belongs 735 s; to `COc1ccc(NC(=O)C2CCN(c3cc(N4CCSCC4)ncn3)CC2)cc1Cl`, 706 s.

In turn, `COCCNc1c(-c2cccc(C)c2)nc2sc(C(=O)NC3CC3)c(C)n12` had an RP-LC retention time of 602 s. On to `CCNC(=O)c1c(-c2cccc(F)c2)noc1C`, for which the RP-LC retention time turned out to be 797 s. Regarding `O=C(c1cn2ccnc(-c3ccccc3)c2n1)N1CCN(C2CCCCC2)CC1`, the RP-LC retention time amounted to 637 s. Regarding `CCCCN1C(=O)C(C)(C(=O)NCc2cc(F)cc(F)c2)Oc2cccnc21` (stereo not given), the RP-LC retention time came out at 1020 s. `CCc1nc2cccnc2n1CCN1CCN(C(=O)Nc2ccccc2Cl)CC1`: the RP-LC retention time is 583 s. Consider `COc1cccc(-c2nc(-c3ccc4c(c3)ncn4CCN3CCCC3)no2)c1`, for which the RP-LC retention time was found to be 653 s.
